# Target: KRasG12C (M1-K169, biotinylated on the N-terminus) (Homo sapiens (Human), UniProt P01116, G12C)
# Test: Covalent competition assay: scintillation proximity assay (SPA) quantifying covalent modification of KRASG12C
# Format: binding
# Conditions: competition with radiolabeled covalent probe (Compound B/Compound A), 2 hours incubation, 10 nM KRasG12C
# Summary of the method: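 Test compounds compete with a radiolabeled covalent probe for modification of N-terminally biotinylated KRasG12C(M1-K169):GDP, final 10 nM protein, 25 nM radio-ligand, 475 nM unlabelled ligand, 2 h with agitation in 20 mM Tris-HCl pH 7.5, 150 mM NaCl, 0.1 mM MgCl2, 0.01% Tween-20.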
row,SMILES,IC50 [nM]
1,"C=CC(=O)N1CC2(CC(n3nc(N4CCc5nn(C)c(=O)cc5C4)c(-c4c(Cl)c(C)cc5[nH]ncc45)c3C)C2)C1 (single isomer, unassigned) [Example 40b, 6-(1-(2-acryloyl-2-azaspiro[3.3]heptan-6-yl)-4-(5-chloro-6-methyl-1H-indazol-4-yl)-5-methyl-1H-pyrazol-3-yl)-2-methyl-5,6,7,8-tetrahydropyrido[4,3-c]pyridazin-3(2H)-one]",633
2,"C=CC(=O)N1CC2(CC(n3nc(N4CCn5nccc5C4C)c(-c4c(Cl)c(C)cc5[nH]ncc45)c3C)C2)C1 (single isomer, unassigned) [Example 41a, 1-(6-(4-(5-chloro-6-methyl-1H-indazol-4-yl)-5-methyl-3-(4-methyl-6,7-dihydropyrazolo[1,5-a]pyrazin-5(4H)-yl)-1H-pyrazol-1-yl)-2-azaspiro[3.3]heptan-2-yl)prop-2-en-1-one]",41900
3,"C=CC(=O)N1CC2(CC(n3nc(N4CCn5nccc5C4C)c(-c4c(Cl)c(C)cc5[nH]ncc45)c3C)C2)C1 (single isomer, unassigned) [Example 41b, 1-(6-(4-(5-chloro-6-methyl-1H-indazol-4-yl)-5-methyl-3-(4-methyl-6,7-dihydropyrazolo[1,5-a]pyrazin-5(4H)-yl)-1H-pyrazol-1-yl)-2-azaspiro[3.3]heptan-2-yl)prop-2-en-1-one]",149
4,"C=CC(=O)N1CC2(CC(n3nc(N4CCn5nccc5C4C)c(-c4c(Cl)c(C)cc5[nH]ncc45)c3C)C2)C1 (single isomer, unassigned) [Example 42a, 1-(6-(4-(5-chloro-6-methyl-1H-indazol-4-yl)-5-methyl-3-(4-methyl-6,7-dihydropyrazolo[1,5-a]pyrazin-5(4H)-yl)-1H-pyrazol-1-yl)-2-azaspiro[3.3]heptan-2-yl)prop-2-en-1-one]",> 50000
5,"C=CC(=O)N1CC2(CC(n3nc(N4CCn5nccc5C4C)c(-c4c(Cl)c(C)cc5[nH]ncc45)c3C)C2)C1 (single isomer, unassigned) [Example 42b, 1-(6-(4-(5-chloro-6-methyl-1H-indazol-4-yl)-5-methyl-3-(4-methyl-6,7-dihydropyrazolo[1,5-a]pyrazin-5(4H)-yl)-1H-pyrazol-1-yl)-2-azaspiro[3.3]heptan-2-yl)prop-2-en-1-one]",186
6,"C=CC(=O)N1CC2(CC(n3nc(N4CCCc5c(cnn5C)C4)c(-c4c(Cl)c(C)cc5[nH]ncc45)c3C)C2)C1 (single isomer, unassigned) [Example 43a, 1-(6-(4-(5-chloro-6-methyl-1H-indazol-4-yl)-5-methyl-3-(1-methyl-4,6,7,8-tetrahydropyrazolo[4,3-c]azepin-5(1H)-yl)-1H-pyrazol-1-yl)-2-azaspiro[3.3]heptan-2-yl)prop-2-en-1-one]",> 50000
7,"C=CC(=O)N1CC2(CC(n3nc(N4CCCc5c(cnn5C)C4)c(-c4c(Cl)c(C)cc5[nH]ncc45)c3C)C2)C1 (single isomer, unassigned) [Example 43b, 1-(6-(4-(5-chloro-6-methyl-1H-indazol-4-yl)-5-methyl-3-(1-methyl-4,6,7,8-tetrahydropyrazolo[4,3-c]azepin-5(1H)-yl)-1H-pyrazol-1-yl)-2-azaspiro[3.3]heptan-2-yl)prop-2-en-1-one]",758
8,"C=CC(=O)N1CC2(CC(n3nc(N4CCC(n5ccnc5)CC4(C)C)c(-c4c(Cl)c(C)cc5[nH]ncc45)c3C)C2)C1 (single isomer, unassigned) [Example 44a, 1-(6-(3-(4-(1H-imidazol-1-yl)-2,2-dimethylpiperidin-1-yl)-4-(5-chloro-6-methyl-1H-indazol-4-yl)-5-methyl-1H-pyrazol-1-yl)-2-azaspiro[3.3]heptan-2-yl)prop-2-en-1-one]",4600
9,"C=CC(=O)N1CC2(CC(n3nc(N4CCC(n5ccnc5)CC4(C)C)c(-c4c(Cl)c(C)cc5[nH]ncc45)c3C)C2)C1 (single isomer, unassigned) [Example 44b, 1-(6-(3-(4-(1H-imidazol-1-yl)-2,2-dimethylpiperidin-1-yl)-4-(5-chloro-6-methyl-1H-indazol-4-yl)-5-methyl-1H-pyrazol-1-yl)-2-azaspiro[3.3]heptan-2-yl)prop-2-en-1-one]",20
10,"C=CC(=O)N1CC2(CC(n3nc(N4CCC(n5ccnc5)CC4(C)C)c(-c4c(Cl)c(C)cc5[nH]ncc45)c3C)C2)C1 (single isomer, unassigned) [Example 45a, 1-(6-(3-(4-(1H-imidazol-1-yl)-2,2-dimethylpiperidin-1-yl)-4-(5-chloro-6-methyl-1H-indazol-4-yl)-5-methyl-1H-pyrazol-1-yl)-2-azaspiro[3.3]heptan-2-yl)prop-2-en-1-one]",365
11,"C=CC(=O)N1CC2(CC(n3nc(N4CCC(n5ccnc5)CC4(C)C)c(-c4c(Cl)c(C)cc5[nH]ncc45)c3C)C2)C1 (single isomer, unassigned) [Example 45b, 1-(6-(3-(4-(1H-imidazol-1-yl)-2,2-dimethylpiperidin-1-yl)-4-(5-chloro-6-methyl-1H-indazol-4-yl)-5-methyl-1H-pyrazol-1-yl)-2-azaspiro[3.3]heptan-2-yl)prop-2-en-1-one]",1500
12,"C=CC(=O)N1CC2(CC(n3nc(N4CCC(N(CC)C5COC5)CC4(C)C)c(-c4c(Cl)c(C)cc5[nH]ncc45)c3C)C2)C1 (single isomer, unassigned) [Example 48a, 1-(6-(4-(5-chloro-6-methyl-1H-indazol-4-yl)-3-(4-(ethyl(oxetan-3-yl)amino)-2,2-dimethylpiperidin-1-yl)-5-methyl-1H-pyrazol-1-yl)-2-azaspiro[3.3]heptan-2-yl)prop-2-en-1-one]",296
13,"C=CC(=O)N1CC2(CC(n3nc(N4CCC(N(CC)C5COC5)CC4(C)C)c(-c4c(Cl)c(C)cc5[nH]ncc45)c3C)C2)C1 (single isomer, unassigned) [Example 48b, 1-(6-(4-(5-chloro-6-methyl-1H-indazol-4-yl)-3-(4-(ethyl(oxetan-3-yl)amino)-2,2-dimethylpiperidin-1-yl)-5-methyl-1H-pyrazol-1-yl)-2-azaspiro[3.3]heptan-2-yl)prop-2-en-1-one]",6
14,"C=CC(=O)N1CC2(CC(n3nc(N4CCN(C5COC5)CC45CCC5)c(-c4c(C)c(O)cc(C)c4Cl)c3C)C2)C1 (single isomer, unassigned) [Example 49a, 1-(6-(4-(2-chloro-5-hydroxy-3,6-dimethylphenyl)-5-methyl-3-(8-(oxetan-3-yl)-5,8-diazaspiro[3.5]nonan-5-yl)-1H-pyrazol-1-yl)-2-azaspiro[3.3]heptan-2-yl)prop-2-en-1-one]",1790
15,"C=CC(=O)N1CC2(CC(n3nc(N4CCN(C5COC5)CC45CCC5)c(-c4c(C)c(O)cc(C)c4Cl)c3C)C2)C1 (single isomer, unassigned) [Example 49b, 1-(6-(4-(2-chloro-5-hydroxy-3,6-dimethylphenyl)-5-methyl-3-(8-(oxetan-3-yl)-5,8-diazaspiro[3.5]nonan-5-yl)-1H-pyrazol-1-yl)-2-azaspiro[3.3]heptan-2-yl)prop-2-en-1-one]",> 5000
16,"C=CC(=O)N1CC2(CC(n3nc(N4CCC(N(C)C5COC5)CC4(C)C)c(-c4c(Cl)c(Cl)cc5[nH]ncc45)c3C)C2)C1 (single isomer, unassigned) [Example 50a, 1-(6-(4-(5,6-dichloro-1H-indazol-4-yl)-3-(2,2-dimethyl-4-(methyl(oxetan-3-yl)amino)piperidin-1-yl)-5-methyl-1H-pyrazol-1-yl)-2-azaspiro[3.3]heptan-2-yl)prop-2-en-1-one]",273
17,"C=CC(=O)N1CC2(CC(n3nc(N4CCC(N(C)C5COC5)CC4(C)C)c(-c4c(Cl)c(Cl)cc5[nH]ncc45)c3C)C2)C1 (single isomer, unassigned) [Example 50b, 1-(6-(4-(5,6-dichloro-1H-indazol-4-yl)-3-(2,2-dimethyl-4-(methyl(oxetan-3-yl)amino)piperidin-1-yl)-5-methyl-1H-pyrazol-1-yl)-2-azaspiro[3.3]heptan-2-yl)prop-2-en-1-one]",5
18,"C=CC(=O)N1CC2(CC(n3nc(N4CCC(N(C)C5COC5)CC45CCC5)c(-c4c(Cl)c(C)cc5[nH]ncc45)c3C)C2)C1 (single isomer, unassigned) [Example 51a, 1-(6-(4-(5-chloro-6-methyl-1H-indazol-4-yl)-5-methyl-3-(8-(methyl(oxetan-3-yl)amino)-5-azaspiro[3.5]nonan-5-yl)-1H-pyrazol-1-yl)-2-azaspiro[3.3]heptan-2-yl)prop-2-en-1-one]",10
19,"C=CC(=O)N1CC2(CC(n3nc(N4CCC(N(C)C5COC5)CC45CCC5)c(-c4c(Cl)c(C)cc5[nH]ncc45)c3C)C2)C1 (single isomer, unassigned) [Example 51b, 1-(6-(4-(5-chloro-6-methyl-1H-indazol-4-yl)-5-methyl-3-(8-(methyl(oxetan-3-yl)amino)-5-azaspiro[3.5]nonan-5-yl)-1H-pyrazol-1-yl)-2-azaspiro[3.3]heptan-2-yl)prop-2-en-1-one]",668
20,"C=CC(=O)N1CC2(CCC(n3nc(N4CCN(C(C)=O)CC4)c(-c4c(Cl)ccc5[nH]ncc45)c3C)C2)C1 (single isomer, unassigned) [Example 53a, 1-(6-(3-(4-acetylpiperazin-1-yl)-4-(5-chloro-1H-indazol-4-yl)-5-methyl-1H-pyrazol-1-yl)-2-azaspiro[3.4]octan-2-yl)prop-2-en-1-one]",4900
21,"C=CC(=O)N1CC2(CCC(n3nc(N4CCN(C(C)=O)CC4)c(-c4c(Cl)ccc5[nH]ncc45)c3C)C2)C1 (single isomer, unassigned) [Example 53b, 1-(6-(3-(4-acetylpiperazin-1-yl)-4-(5-chloro-1H-indazol-4-yl)-5-methyl-1H-pyrazol-1-yl)-2-azaspiro[3.4]octan-2-yl)prop-2-en-1-one]",> 50000
